These are literature values, as cited in US7807833B2, “Method for total synthesis of ecteinascidins and intermediate compounds thereof” (Japan Science and Technology Agency, priority 2002, dated 2010).

The structures appear in SMILES notation.

The data set relates to cancer cells.

With `COc1cc2c(cc1O)CCN[C@]21CS[C@@H]2c3c(OC(C)=O)c(C)c4c(c3[C@H](COC1=O)N1[C@@H]2[C@H]2c3c(cc(C)c(OC)c3O)C[C@@H]([C@@H]1O)N2C)OCO4` [Et 743, ecteinascidin 743], the IC50 (background statement, cell lines not named, read-out: IC50, depressing the proliferation of cancer cells) is 0.1 to 1 nM. For the same compound, for the setting “relative to currently used carcinostatic agents”, the “times more potent than Toxol, Camptotesin, Adriamycin or Mitomycin in depressing the proliferation of cancer cells” value was 10 to 100 times.

For the compound `COc1c(C)cc2c(c1O)[C@@H]1[C@@H]3Cc4c(OC(C)=O)c(C)c5c(c4[C@H](CN4C(=O)c6ccccc6C4=O)N3[C@@H](C#N)[C@H](C2)N1C)OCO5` [phthalascidin], the “antineoplastic activity compared with ET 743” value (qualitative background statement) is reported as “same activity to ET 743”.
